Experimental data: patent US11365187B2, “Pesticidally active pyrazole derivatives” (SYNGENTA PARTICIPATIONS AG, priority 2017, dated 2022)
Read-outs that look alike come from different tables or passages of the source.

Columns and labels:
Assay type in all cases: in vivo
[1] = test system: Plutella xylostella (Diamond back moth); assay: Plutella xylostella feeding/contact activity on artificial diet; conditions: 120 h
Protocol: Plutella xylostella (Diamond back moth): Feeding/contact activity
24-well microtiter plates with artificial diet were treated with aqueous test solutions prepared from 10′000 ppm DMSO stock solutions by pipetting. After drying, the plates were infested with L2 larvae (10 to 15 per well). The samples were assessed for mortality 5 days after infestation.

[2] = test system: Spodoptera littoralis (Egyptian cotton leaf worm); assay: Spodoptera littoralis feeding/contact activity on cotton leaf discs; conditions: foliar, 72 h
Protocol: Spodoptera littoralis (Egyptian cotton leaf worm): Feeding/contact activity
Cotton leaf discs were placed onto agar in 24-well microtiter plates and sprayed with aqueous test solutions prepared from 10′000 ppm DMSO stock solutions. After drying the leaf discs were infested with five L1 larvae. The samples were assessed for mortality 3 days after infestation. […] 2, 3, 4, 5, 6, 7, 8, 9, 10, 11, 12, 13, 14, 15, 16, 17, 18, 19, 20, 21, 22, 23, 24, 25, 26, 27, 28 and 29.

[3] = test system: Myzus persicae (Green peach aphid); assay: Myzus persicae feeding/contact activity on sunflower leaf discs; conditions: foliar, 144 h
Protocol: Myzus persicae (Green peach aphid): Feeding/Contact activity
Sunflower leaf discs were placed onto agar in a 24-well microtiter plate and sprayed with aqueous test solutions prepared from 10′000 ppm DMSO stock solutions. After drying, the leaf discs were infested with an aphid population of mixed ages. The samples were assessed for mortality 6 days after infestation.

[4] = test system: Euschistus heros (Neotropical Brown Stink Bug); assay: Euschistus heros feeding/contact activity on soybean leaves; conditions: 120 h
Protocol: Euschistus heros (Neotropical Brown Stink Bug): Feeding/contact activity
Soybean leaves on agar in 24-well microtiter plates were sprayed with aqueous test solutions prepared from 10′000 ppm DMSO stock solutions. After drying the leaves were infested with N2 nymphs. The samples were assessed for mortality 5 days after infestation.

[5] = test system: Tetranychus urticae (Two-spotted spider mite); assay: Tetranychus urticae feeding/contact activity on bean leaf discs; conditions: foliar, 192 h, read-out: mortality on mixed population (mobile stages)
Protocol: Tetranychus urticae (Two-spotted spider mite): Feeding/contact activity
Bean leaf discs on agar in 24-well microtiter plates were sprayed with aqueous test solutions prepared from 10′000 ppm DMSO stock solutions. After drying the leaf discs were infested with a mite population of mixed ages. The samples were assessed for mortality on mixed population (mobile stages) 8 days after infestation.

[6] = application rate 200 ppm, L2 larvae, assessed 5 days after infestation, read-out: mortality
[7] = application rate 200 ppm, L1 larvae, assessed 3 days after infestation, read-out: mortality
[8] = application rate 200 ppm, aphid population of mixed ages, assessed 6 days after infestation, read-out: mortality
[9] = application rate 200 ppm, N2 nymphs, assessed 5 days after infestation, read-out: mortality
[10] = application rate 200 ppm, mite population of mixed ages, assessed 8 days after infestation

Measured: mortality at 200 ppm

CCN(C(=O)c1cc(-c2cnn(-c3c(OC(F)F)c(C(F)(C(F)(F)F)C(F)(F)F)nn3C)c2)ccc1Cl)C1CC1 [Example 26, 2-chloro-N-cyclopropyl-5-[1-[4-(difluoromethoxy)-2-methyl-5-[1,2,2,2-tetrafluoro-1-(trifluoromethyl)ethyl]pyrazol-3-yl]pyrazol-4-yl]-N-ethyl-benzamide]
≥ 80%: [1]; [6] | [2]; [7] | [3]; [8] | [4]; [9] | [5]; [10]

COC(=O)N(C(=O)c1cc(-c2cnn(-c3c(OC(F)F)c(C(F)(C(F)(F)F)C(F)(F)F)nn3C)c2)ccc1Cl)C1CC1 [Example 23, methyl N-[2-chloro-5-[1-[4-(difluoromethoxy)-2-methyl-5-[1,2,2,2-tetrafluoro-1-(trifluoromethyl)ethyl]pyrazol-3-yl]pyrazol-4-yl]benzoyl]-N-cyclopropyl-carbamate]
≥ 80%: [1] | [2] | [3] | [4] | [5]

CCOCCN(C(=O)c1cc(-c2cnn(-c3c(OC(F)F)c(C(F)(C(F)(F)F)C(F)(F)F)nn3C)c2)ccc1Cl)C1(C#N)CC1 [Example 13, 2-chloro-N-(1-cyanocyclopropyl)-5-[1-[4-(difluoromethoxy)-2-methyl-5-[1,2,2,2-tetrafluoro-1-(trifluoromethyl)ethyl]pyrazol-3-yl]pyrazol-4-yl]-N-(2-ethoxyethyl)benzamide]
≥ 80%: [1]; [6] | [2]; [7] | [3]; [8] | [5]; [10]

Cn1nc(C(F)(C(F)(F)F)C(F)(F)F)c(OC(F)F)c1-n1cc(-c2ccc(Cl)c(C(=O)N(CC#N)C3CC3)c2)cn1 [Example 16, 2-chloro-N-(cyanomethyl)-N-cyclopropyl-5-[1-[4-(difluoromethoxy)-2-methyl-5-[1,2,2,2-tetrafluoro-1-(trifluoromethyl)ethyl]pyrazol-3-yl]pyrazol-4-yl]benzamide]
≥ 80%: [1]; [6] | [2]; [7] | [3]; [8] | [4]; [9] | [5]; [10]

CC(C)OC(=O)N(C(=O)c1cc(-c2cnn(-c3c(OC(F)F)c(C(F)(C(F)(F)F)C(F)(F)F)nn3C)c2)ccc1Cl)C1(C#N)CC1 [Example 20, isopropyl N-[2-chloro-5-[1-[4-(difluoromethoxy)-2-methyl-5-[1,2,2,2-tetrafluoro-1-(trifluoromethyl)ethyl]pyrazol-3-yl]pyrazol-4-yl]benzoyl]-N-(1-cyanocyclopropyl)carbamate]
≥ 80%: [1] | [2] | [3] | [4]

CC(C)OC(=O)N(C(=O)c1cc(-c2cnn(-c3c(OC(F)F)c(C(F)(C(F)(F)F)C(F)(F)F)nn3C)c2)ccc1Cl)C1CC1 [Example 24, isopropyl N-[2-chloro-5-[1-[4-(difluoromethoxy)-2-methyl-5-[1,2,2,2-tetrafluoro-1-(trifluoromethyl)ethyl]pyrazol-3-yl]pyrazol-4-yl]benzoyl]-N-cyclopropyl-carbamate]
≥ 80%: [1] | [2] | [3] | [4] | [5]

COCN(C(=O)c1cc(-c2cnn(-c3c(OC(F)F)c(C(F)(C(F)(F)F)C(F)(F)F)nn3C)c2)ccc1Cl)C1CC1 [Example 28, 2-chloro-N-cyclopropyl-5-[1-[4-(difluoromethoxy)-2-methyl-5-[1,2,2,2-tetrafluoro-1-(trifluoromethyl)ethyl]pyrazol-3-yl]pyrazol-4-yl]-N-(methoxymethyl)benzamide]
≥ 80%: [1]; [6] | [2]; [7] | [3]; [8] | [4]; [9] | [5]; [10]

CC(C)OCN(C(=O)c1cc(-c2cnn(-c3c(OC(F)F)c(C(F)(C(F)(F)F)C(F)(F)F)nn3C)c2)ccc1Cl)C1(C#N)CC1 [Example 2, 2-chloro-N-(1-cyanocyclopropyl)-5-[1-[4-(difluoromethoxy)-2-methyl-5-[1,2,2,2-tetrafluoro-1-(trifluoromethyl)ethyl]pyrazol-3-yl]pyrazol-4-yl]-N-(isopropoxymethyl)benzamide]
≥ 80%: [1]; [6] | [2]; [7] | [3]; [8] | [4]; [9] | [5]; [10]

COCC(=O)N(C(=O)c1cc(-c2cnn(-c3c(OC(F)F)c(C(F)(C(F)(F)F)C(F)(F)F)nn3C)c2)ccc1Cl)C1CC1 [Example 22, 2-chloro-N-cyclopropyl-5-[1-[-4-(difluoromethoxy)-2-methyl-5-[1,2,2,2-tetrafluoro-1-(trifluoromethyl)ethyl]pyrazol-3-yl]pyrazol-4-yl]-N-(2-methoxyacetyl)benzamide]
≥ 80%: [1]; [6] | [2]; [7] | [3]; [8] | [4]; [9] | [5]; [10]

CCOC(=O)N(C(=O)c1cc(-c2cnn(-c3c(OC(F)F)c(C(F)(C(F)(F)F)C(F)(F)F)nn3C)c2)ccc1Cl)C1CC1 [Example 15, ethyl N-[2-chloro-5-[1-[4-(difluoromethoxy)-2-methyl-5-[1,2,2,2-tetrafluoro-1-(trifluoromethyl)ethyl]pyrazol-3-yl]pyrazol-4-yl]benzoyl]-N-cyclopropyl-carbamate]
≥ 80%: [1] | [2] | [3] | [4] | [5]

COCCN(C(=O)c1cc(-c2cnn(-c3c(OC(F)F)c(C(F)(C(F)(F)F)C(F)(F)F)nn3C)c2)ccc1Cl)C1(C#N)CC1 [Example 7, 2-chloro-N-(1-cyanocyclopropyl)-5-[1-[4-(difluoromethoxy)-2-methyl-5-[1,2,2,2-tetrafluoro-1-(trifluoromethyl)ethyl]pyrazol-3-yl]pyrazol-4-yl]-N-(2-methoxyethyl)benzamide]
≥ 80%: [1]; [6] | [2]; [7] | [3]; [8] | [4]; [9] | [5]; [10]

CC(C)CN(C(=O)c1cc(-c2cnn(-c3c(OC(F)F)c(C(F)(C(F)(F)F)C(F)(F)F)nn3C)c2)ccc1Cl)C1(C#N)CC1 [Example 21, 2-chloro-N-(1-cyanocyclopropyl)-5-[1-[4-(difluoromethoxy)-2-methyl-5-[1,2,2,2-tetrafluoro-1-(trifluoromethyl)ethyl]pyrazol-3-yl]pyrazol-4-yl]-N-isobutyl-benzamide]
≥ 80%: [2]; [7] | [4]; [9]

CC(C)N(C(=O)c1cc(-c2cnn(-c3c(OC(F)F)c(C(F)(C(F)(F)F)C(F)(F)F)nn3C)c2)ccc1Cl)C1(C#N)CC1 [Example 5, 2-chloro-N-(1-cyanocyclopropyl)-5-[1-[4-(difluoromethoxy)-2-methyl-5-[1,2,2,2-tetrafluoro-1-(trifluoromethyl)ethyl]pyrazol-3-yl]pyrazol-4-yl]-N-isopropyl-benzamide]
≥ 80%: [2]; [7] | [4]; [9]

CCCN(C(=O)c1cc(-c2cnn(-c3c(OC(F)F)c(C(F)(C(F)(F)F)C(F)(F)F)nn3C)c2)ccc1Cl)C1(C#N)CC1 [Example 14, 2-chloro-N-(1-cyanocyclopropyl)-5-[1 - [4-(difluoromethoxy)-2-methyl-5-[1,2,2,2-tetrafluoro-1-(trifluoromethyl)ethyl]pyrazol-3-yl]pyrazol-4-yl]-N-propyl-benzamide]
≥ 80%: [2]; [7] | [4]; [9]
